From US6916915B1, “Stressor regulated genes” (Duke University, priority 1998, dated 2005)

Test system: C. elegans
Assay: Reverse-Northern dot-blot analysis of steady-state mRNA levels after cadmium exposure
Type: in vivo, Caenorhabditis elegans
Conditions: for Fold-change in mRNA levels following cadmium exposure, DDRT1: clone DDRT1; for Fold-change in mRNA levels following cadmium exposure, DDRT2: clone DDRT2; for Fold-change in mRNA levels following cadmium exposure, DDRT3: clone DDRT3; for Fold-change in mRNA levels following cadmium exposure, DDRT4: clone DDRT4; for Fold-change in mRNA levels following cadmium exposure, DDRT5: clone DDRT5; for Fold-change in mRNA levels following cadmium exposure, DDRT6: clone DDRT6; for Fold-change in mRNA levels following cadmium exposure, DDRT7: clone DDRT7; for Fold-change in mRNA levels following cadmium exposure, DDRT9: clone DDRT9; for Fold-change in mRNA levels following cadmium exposure, DDRT10: clone DDRT10; for Fold-change in mRNA levels following cadmium exposure, DDRT12: clone DDRT12; for Fold-change in mRNA levels following cadmium exposure, DDRT15: clone DDRT15; for Fold-change in mRNA levels following cadmium exposure, DDRT16: clone DDRT16; for Fold-change in mRNA levels following cadmium exposure, DDRT17: clone DDRT17; for Fold-change in mRNA levels following cadmium exposure, DDRT18: clone DDRT18; for Fold-change in mRNA levels following cadmium exposure, DDRT19: clone DDRT19; for Fold-change in mRNA levels following cadmium exposure, DDRT20: clone DDRT20; for Fold-change in mRNA levels following cadmium exposure, DDRT21D: clone DDRT21D; for Fold-change in mRNA levels following cadmium exposure, DDRT21U: clone DDRT21U; for Fold-change in mRNA levels following cadmium exposure, DDRT22: clone DDRT22; for Fold-change in mRNA levels following cadmium exposure, DDRT23: clone DDRT23; for Fold-change in mRNA levels following cadmium exposure, DDRT25: clone DDRT25; for Fold-change in mRNA levels following cadmium exposure, DDRT26: clone DDRT26; for Fold-change in mRNA levels following cadmium exposure, DDRT28: clone DDRT28; for Fold-change in mRNA levels following cadmium exposure, DDRT29: clone DDRT29; for Fold-change in mRNA levels following cadmium exposure, DDRT30: clone DDRT30; for Fold-change in mRNA levels following cadmium exposure, DDRT32: clone DDRT32; for Fold-change in mRNA levels following cadmium exposure, DDRT33D: clone DDRT33D; for Fold-change in mRNA levels following cadmium exposure, DDRT33U: clone DDRT33U; for Fold-change in mRNA levels following cadmium exposure, DDRT34: clone DDRT34; for Fold-change in mRNA levels following cadmium exposure, DDRT35: clone DDRT35; for Fold-change in mRNA levels following cadmium exposure, DDRT40: clone DDRT40; for Fold-change in mRNA levels following cadmium exposure, DDRT41: clone DDRT41; for Fold-change in mRNA levels following cadmium exposure, DDRT48: clone DDRT48; for Fold-change in mRNA levels following cadmium exposure, DDRT50: clone DDRT50; for Fold-change in mRNA levels following cadmium exposure, VL9: clone VL9; for Fold-change in mRNA levels following cadmium exposure, VL11: clone VL11; for Fold-change in mRNA levels following cadmium exposure, VL19: clone VL19; for Fold-change in mRNA levels following cadmium exposure, VL20: clone VL20; for Fold-change in mRNA levels following cadmium exposure, VL21: clone VL21
Protocol: Growth and isolation of C. elegans—The N2 strain of C. elegans was grown in liquid S medium (0.1M NaCl, 50 mM potassium phosphate, pH 6.0, 5 μg/ml cholesterol, 10 mM potassium citrate, 3 mM CaCl2, 3 mM MgCl2, 50 μM EDTA, 25 μM FeSO4, 10 μM MnCl2, 10 μM ZnSO4 and 1 μM CuSO4) using E. coli OP50 as a food source (Brenner, S. (1974) Genetics 77, 71-94). In experiments where nematodes were exposed to cadmium, the medium was supplemented with 100 μM CdCl2 (Freedman, J. H. et al. (1993) J. Biol. Chem. 268, 2554-2564). C. elegans were grown in the presence of metal for 8 h or 24 h at ˜20° C. Nematodes were then collected following centrifugation at 800×g for 5 min. Pellets were suspended in 5 mM NaCl containing 35% sucrose (final concentration) and viable nematodes were collected from the top of the solution following centrifugation at 1000×g for 5 min at 4° C. Nematodes were then washed three times by suspension in M9 buffer (22 mM KH2PO4, 42 mM Na2HPO4, 85 mM NaCl, 1 mM MgSO4) followed by sedimentation at 800×g. Washed nematode pellets were finally suspended in a small volume of M9 buffer, rapidly frozen in liquid nitrogen and stored at −80° C.
RNA isolation—Total RNA was isolated from mix-stage populations of C. elegans exposed to 100 μM CdCl2 for 8 h and 24 h and control, non-exposed nematodes. Frozen worms were first ground into a fine powder using a liquid nitrogen-cooled mortar and pestle. Powdered C. elegans (200 mg) were then homogenized in 2 ml of TRIzol (GIBCO/BRL). RNA was then collected from the aqueous phase following the addition of chloroform, precipitated by adding isopropyl alcohol and then air-dried. The dried RNA pellet was then dissolved in diethyl pyrocarbonate (DEPC)-treated water. For some experiments, poly(A^+) RNA was subsequently isolated using the Poly(A) Tract System following manufacturer's instructions (Promega).
Reverse-Northern dot-blot analysis—Changes in the steady-state levels of differentially expressed mRNAs in C. elegans following cadmium-exposure were also determined by reverse-Northern dot-blot analysis by the modified procedure of Zhang et al. (Cummins, C. et al. (1988) Mol. Cell. Biol 8, 5334-5349). Briefly, differentially expressed cDNAs that were previously cloned into pGEM-T were amplified using primers that anneal to the T7 and SP6 RNA polymerase binding sites, which flank the cDNA insert. cDNAs were amplified and subsequently purified using a PCR-spin column (QIAGEN). Approximately 100 ng of each amplified cDNA were denatured by mixing with 0.1N NaOH (final concentration) and incubating at 100° C. for 5 min. The solution was neutralized following the addition of 3×SSC (final concentration) and then the volume adjusted to 700 μl with dH2O. 200-μl of each sample was applied to one of three Nytran membranes in a Bio-Dot microfiltration apparatus (BioRad). Membranes were then baked for 30 min at 80° C. under vacuum. As positive and loading controls 100 ng of mtl-1 cDNA and myosin light chain DNA were also applied to each membrane, respectively.
Three pools of single-stranded ^32P-labeled cDNA probes were prepared from poly(A^+) RNA isolated from control, 8 h and 24 h cadmium-treated nematodes. cDNAs were generated from a mixture of mRNAs in a 25 μl reverse transcriptase reactions which contained 2 μg poly(A^+) RNA, 1 μg oligo (dT)18 primer, reverse transcriptase buffer, 800 μM DATP, dGTP and dTTP, 4.5 μM dCTP, 100 μCi [α-^32P]dCTP (3000 Ci/mmol), 20 units RNase inhibitor and 200 units Moloney murine leukemia virus reverse transcriptase. The reaction mixture was incubated at 37° C. for 1 h, then at 95° C. for 5 min to terminate the reaction. Unincorporated nucleotides were separated from the labeled cDNAs by using a G-25 spin column (Boehringer Mannheim). Equal amounts (5×10^6 cpm/ml) of each radioactive cDNA mixture were heat-denatured and then hybridized separately to one of the three membranes at 42° C. for 16 h in hybridization buffer. […]

[1] = cadmium exposure, time not stated
[2] = 8 hours, 100 μM CdCl2, relative to non-exposed, normalized to myosin light chain mRNA
[3] = 24 hours, 100 μM CdCl2, relative to non-exposed, normalized to myosin light chain mRNA

[Cl][Cd][Cl] [cadmium, CdCl2]
increase in level of expression, forty-six of the clones (24-h exposure): up to 6 fold
level of expression of myosin light-chain mRNA (after cadmium treatment, loading control on dot blot): remained constant
induction of mtl-1 mRNA (after cadmium treatment, positive control on dot blot, time not stated): ~5 fold
increase in the level of mRNA DDRT30 (collagen col-36) [1]: 3 fold
increase in the level of mRNA DDRT33D (predicted cuticle collagen) [1]: 3 fold
Fold-change in mRNA levels following cadmium exposure, DDRT1 [2]: 2.2 fold
Fold-change in mRNA levels following cadmium exposure, DDRT1 [3]: 3.2 fold
Fold-change in mRNA levels following cadmium exposure, DDRT2 [2]: 3.1 fold
Fold-change in mRNA levels following cadmium exposure, DDRT2 [3]: 3.9 fold
Fold-change in mRNA levels following cadmium exposure, DDRT3 [2]: 2.0 fold
Fold-change in mRNA levels following cadmium exposure, DDRT3 [3]: 2.4 fold
Fold-change in mRNA levels following cadmium exposure, DDRT4 [2]: 2.5 fold
Fold-change in mRNA levels following cadmium exposure, DDRT4 [3]: 2.8 fold
Fold-change in mRNA levels following cadmium exposure, DDRT5 [2]: 3.2 fold
Fold-change in mRNA levels following cadmium exposure, DDRT5 [3]: 3.9 fold
Fold-change in mRNA levels following cadmium exposure, DDRT6 [2]: 4.7 fold
Fold-change in mRNA levels following cadmium exposure, DDRT6 [3]: 5.0 fold
Fold-change in mRNA levels following cadmium exposure, DDRT7 [2]: 3.6 fold
Fold-change in mRNA levels following cadmium exposure, DDRT7 [3]: 4.0 fold
Fold-change in mRNA levels following cadmium exposure, DDRT9 [2]: 3.5 fold
Fold-change in mRNA levels following cadmium exposure, DDRT9 [3]: 2.8 fold
Fold-change in mRNA levels following cadmium exposure, DDRT10 [2]: 2.7 fold
Fold-change in mRNA levels following cadmium exposure, DDRT10 [3]: 2.5 fold
Fold-change in mRNA levels following cadmium exposure, DDRT12 [2]: 3.0 fold
Fold-change in mRNA levels following cadmium exposure, DDRT12 [3]: 3.2 fold
Fold-change in mRNA levels following cadmium exposure, DDRT15 [2]: 2.8 fold
Fold-change in mRNA levels following cadmium exposure, DDRT15 [3]: 3.1 fold
Fold-change in mRNA levels following cadmium exposure, DDRT16 [2]: 4.3 fold
Fold-change in mRNA levels following cadmium exposure, DDRT16 [3]: 4.9 fold
Fold-change in mRNA levels following cadmium exposure, DDRT17 [2]: 3.7 fold
Fold-change in mRNA levels following cadmium exposure, DDRT17 [3]: 5.7 fold
Fold-change in mRNA levels following cadmium exposure, DDRT18 [2]: 2.2 fold
Fold-change in mRNA levels following cadmium exposure, DDRT18 [3]: 2.9 fold
Fold-change in mRNA levels following cadmium exposure, DDRT19 [2]: 2.7 fold
Fold-change in mRNA levels following cadmium exposure, DDRT19 [3]: 3.9 fold
Fold-change in mRNA levels following cadmium exposure, DDRT20 [2]: 2.6 fold
Fold-change in mRNA levels following cadmium exposure, DDRT20 [3]: 2.8 fold
Fold-change in mRNA levels following cadmium exposure, DDRT21D [2]: 2.2 fold
Fold-change in mRNA levels following cadmium exposure, DDRT21D [3]: 4.2 fold
Fold-change in mRNA levels following cadmium exposure, DDRT21U [2]: 2.2 fold
Fold-change in mRNA levels following cadmium exposure, DDRT21U [3]: 2.6 fold
Fold-change in mRNA levels following cadmium exposure, DDRT22 [2]: 2.5 fold
Fold-change in mRNA levels following cadmium exposure, DDRT22 [3]: 3.3 fold
Fold-change in mRNA levels following cadmium exposure, DDRT23 [2]: 3.3 fold
Fold-change in mRNA levels following cadmium exposure, DDRT23 [3]: 3.0 fold
Fold-change in mRNA levels following cadmium exposure, DDRT25 [2]: 3.9 fold
Fold-change in mRNA levels following cadmium exposure, DDRT25 [3]: 4.4 fold
Fold-change in mRNA levels following cadmium exposure, DDRT26 [2]: 4.4 fold
Fold-change in mRNA levels following cadmium exposure, DDRT26 [3]: 4.7 fold
Fold-change in mRNA levels following cadmium exposure, DDRT28 [2]: 1.7 fold
Fold-change in mRNA levels following cadmium exposure, DDRT28 [3]: 1.8 fold
Fold-change in mRNA levels following cadmium exposure, DDRT29 [2]: 3.9 fold
Fold-change in mRNA levels following cadmium exposure, DDRT29 [3]: 4.4 fold
Fold-change in mRNA levels following cadmium exposure, DDRT30 [2]: 2.7 fold
Fold-change in mRNA levels following cadmium exposure, DDRT30 [3]: 3.1 fold
Fold-change in mRNA levels following cadmium exposure, DDRT32 [2]: 2.6 fold
Fold-change in mRNA levels following cadmium exposure, DDRT32 [3]: 2.4 fold
Fold-change in mRNA levels following cadmium exposure, DDRT33D [2]: 3.1 fold
Fold-change in mRNA levels following cadmium exposure, DDRT33D [3]: 3.5 fold
Fold-change in mRNA levels following cadmium exposure, DDRT33U [2]: 3.0 fold
Fold-change in mRNA levels following cadmium exposure, DDRT33U [3]: 3.5 fold
Fold-change in mRNA levels following cadmium exposure, DDRT34 [2]: 2.4 fold
Fold-change in mRNA levels following cadmium exposure, DDRT34 [3]: 3.0 fold
Fold-change in mRNA levels following cadmium exposure, DDRT35 [2]: 1.6 fold
Fold-change in mRNA levels following cadmium exposure, DDRT35 [3]: 1.9 fold
Fold-change in mRNA levels following cadmium exposure, DDRT38 (clone DDRT38, 24 hours, 100 μM CdCl2, relative to non-exposed, normalized to myosin light chain mRNA): 1.8 fold
Fold-change in mRNA levels following cadmium exposure, DDRT40 [2]: 1.9 fold
Fold-change in mRNA levels following cadmium exposure, DDRT40 [3]: 2.3 fold
Fold-change in mRNA levels following cadmium exposure, DDRT41 [2]: 2.2 fold
Fold-change in mRNA levels following cadmium exposure, DDRT41 [3]: 2.1 fold
Fold-change in mRNA levels following cadmium exposure, DDRT48 [2]: 2.1 fold
Fold-change in mRNA levels following cadmium exposure, DDRT48 [3]: 2.6 fold
Fold-change in mRNA levels following cadmium exposure, DDRT50 [2]: 2.2 fold
Fold-change in mRNA levels following cadmium exposure, DDRT50 [3]: 2.2 fold
Fold-change in mRNA levels following cadmium exposure, VL3 (clone VL3, 24 hours, 100 μM CdCl2, relative to non-exposed, normalized to myosin light chain mRNA): 2.4 fold
Fold-change in mRNA levels following cadmium exposure, VL9 [2]: −1.7 fold
Fold-change in mRNA levels following cadmium exposure, VL9 [3]: −2.3 fold
Fold-change in mRNA levels following cadmium exposure, VL11 [2]: 3.2 fold
Fold-change in mRNA levels following cadmium exposure, VL11 [3]: 6.1 fold
Fold-change in mRNA levels following cadmium exposure, VL12 (clone VL12 (mtl-1), 24 hours, 100 μM CdCl2, relative to non-exposed, normalized to myosin light chain mRNA): 5.2 fold
Fold-change in mRNA levels following cadmium exposure, VL19 [2]: 3.6 fold
Fold-change in mRNA levels following cadmium exposure, VL19 [3]: 5.0 fold
Fold-change in mRNA levels following cadmium exposure, VL20 [2]: 2.8 fold
Fold-change in mRNA levels following cadmium exposure, VL20 [3]: 5.0 fold
Fold-change in mRNA levels following cadmium exposure, VL21 [2]: 2.2 fold
Fold-change in mRNA levels following cadmium exposure, VL21 [3]: 2.5 fold
decrease in level of expression, a single clone (following cadmium exposure): ~2 fold
increase in steady-state level of expression, forty-eight of the clones (following cadmium exposure): 2-6 fold
decrease in level of expression for VL9 (in response to cadmium, time not stated): ~2 fold
